{"source": "patent US8057810B2", "about": "“Peptide substance revealing an immunogeroprotective effect, pharmaceutical composition on its base and the method of its application” (priority 2006, dated 2011)", "key": {"[1]": {"tested_on": "old rats' spleen explants", "experiment": "Development of spleen explants taken from old rats (area index)", "format": "cell-based", "conditions": "10 ng/ml", "experimental": "The experiments were staged on 35 fragments of the thymus and 45 fragments of the spleen taken from rats aged 24 months. Nutritional medium for cultivation consisted of 35% Eagle's solution, 25% calf fetal serum, 35% Hanx solution, 5% chicken embryonic extract, with the addition of glucose (0.6%), insulin (0.5 U/ml), penicillin (100 U/ml), glutamin (2 mM). […]\nPeptide H-Glu-Asp-Pro-OH was added into the experimental medium in concentrations of 0.5, 10 and 100 ng/ml.\nArea index (AI)—the ratio of total explant area including the growth zone to the initial area of thymus or spleen fragment was used as a criterion for measuring the biological activity. AI values were expressed in percent, control AI value being taken as 100%."}, "[2]": {"tested_on": "peritoneal macrophages", "experiment": "Production of lymphocyte activation factors (LAF) by peritoneal macrophages", "format": "cell-based, mice", "source_text": "The peculiarities of LAF production by peritoneal macrophages in young and ageing mice, as well as the influence of peptide H-Glu-Asp-Pro-OH on this index were studied. LAF activity of the macrophages was estimated judging by their ability to exert a comitogenic effect on the proliferation of thymocytes, stimulated by suboptimal lectin doses in vitro.\nThe same tendency to the change in LAF production by macrophages was observed under the effect of peptide H-Glu-Asp-Pro-OH in young mice, but not in the whole range of studied concentrations."}, "[3]": {"tested_on": "lymphocytes taken from very old patients", "experiment": "Chromatin in blood lymphocytes of old patients in vitro", "format": "cell-based, human", "conditions": "0.01 μg/ml; lymphocytes of patients aged 75-88", "experimental": "Peptide H-Glu-Asp-Pro-OH effect on the system of chromatin domains was studied in old people lymphocytes cultures, in particular on chromatin reactivation such as in deheterochromatinization of heterocliromatin satellite filaments (activity of synthetic processes in ribosomal genes, total heterochromatin, structural heterochromatin (changeability of C-blocks of the 1, 9 and 16 chromosomes) and optional heterochromatin.\nThe studies were conducted on the chromosomes of 150 PHA-stimulated and 40 PHA-non-stimulated lymphocyte cultures, obtained from 95 healthy patients aged 75-88 (control—25 donors aged 20-40). There were studied 2 cell cultures from each patient —one intact and one with peptide H-Glu-Asp-Pro-OH added into the cultural medium up to the ultimate concentration of 0.01 μg/ml. To study each parameter there were analyzed from 30 up to 50 metaphases of both intact lymphocyte cultures and those with added peptide (10 cultures of each).\nTo estimate ribosomal genes activity in intact cultures and under the effect of the peptide there were used methods of Ag-banding and of the registration of nucleolar organizers regions (NOR) of acrocentric chromosomes. Changeability of the activity level was estimated comparing two binomial totals.\nPolymorphism of structural C-heterochromatin of the 1, 9 and 16 chromosomes was estimated. For comparative analysis of C-stained chromosomes of intact cultures and those treated with the peptide there was used a standard system of classification, according to which the size of the 1, 9, 16 chromosomes C-segments were compared to the chromosome 16 short leg and the results were divided into 5 categories—a, b, c, d, e. The changeability of facultative heterochromatin was estimated according to the frequency of sister chromatid exchange (SCE) in intact and peptide-treated lymphocytes."}, "[4]": {"tested_on": "white mongrel male rats", "experiment": "Subacute toxicity, 90 days intramuscular", "format": "in vivo", "conditions": "i.m. daily for 90 days, 1 μg/kg, 0.1 mg/kg, 1 mg/kg (100-1000 times the therapeutic dose)", "experimental": "Common toxicity of H-Glu-Asp-Pro-OH was studied according to the requirements stated in the “Manual for experimental (pre-clinical) study of new pharmacological substances” (2005): acute toxicity in case of single administration of the substance and sub-acute and chronic toxicity in case of long-term administration of the peptide.\nThe study of acute toxicity was performed on 60 white mongrel male mice with body weight of 18-21 g. The animals were randomly subdivided into 6 equal groups. The substance was administered to the animals once, intramuscularly, in the doses of 1 mg/kg, 2 mg/kg, 3 mg/kg, 4 mg/kg, 5 mg/kg in 0.25 ml of sterile 0.9% NaCl solution. The control animals received 0.9% NaCl solution in the same volume. The study of subacute toxicity was performed on 50 white mongrel male rats with body weight of 170-210 g. Experimental animals received the substance daily, intramuscularly for 90 days in the doses of 1 μg/kg, 0.1 mg/kg, 1 mg/kg in 0.5 ml of sterile 0.9% NaCl solution. […] Upon completion of the experiment biochemical and coagulologic indices of the blood were also evaluated. […] Traditional methods were used for the evaluation of the following indices of the animals' peripheric blood: the quantity of erythrocytes, hemoglobin, reticulocytes, thrombocytes, leukocytes, leukocyte formula, erythrocyte sedimentation rate (ESR), erythrocyte resistance. […]"}, "[5]": {"conditions": "ageing mice 19-20 months, 0.5 to 500 ng/ml"}}, "note": "Residues, ends and D or L forms follow the SMILES beside them."}
{"smiles": "N[C@@H](CCC(=O)O)C(=O)N[C@@H](CC(=O)O)C(=O)N1CCC[C@H]1C(=O)O", "note": "[Peptide H-Glu-Asp-Pro-OH, glutamyl-aspartyl-proline] (H-Glu-Asp-Pro-OH)", "values": [{"measurement": "Stimulating effect on spleen explants at longer term", "setting": "[1]; 7th day", "result": "still visible, although it was less pronounced"}, {"measurement": "Area index (AI) in spleen explants, increase", "setting": "[1]; rats aged 24 months", "result": 28, "unit": "%"}, {"measurement": "LAF production by non-stimulated peritoneal macrophages", "setting": "[2]; [5]", "result": "induces the production of LAF"}, {"measurement": "LAF production under the effect of LPS", "setting": "[2]; [5]", "result": "increases the production of LAF"}, {"measurement": "Change in LAF production by macrophages", "setting": "[2]; young mice 2 months, not in the whole range of studied concentrations", "result": "same tendency"}, {"measurement": "Associated acrocentric chromosomes (per cell)", "setting": "[3]", "result": "2.32 ± 0.12", "unit": "per cell"}, {"measurement": "Deheterochromatinization of optional heterochromatin - SCE (per cell)", "setting": "[3]", "result": "8.4 ± 0.5", "unit": "per cell"}, {"measurement": "Structural heterochromatin (C-blocks), chromosome 1", "setting": "[3]", "result": "Deheterochro-"}, {"measurement": "Structural heterochromatin (C-blocks), chromosome 9", "setting": "[3]", "result": "Deheterochro-"}, {"measurement": "Structural heterochromatin (C-blocks), chromosome 16", "setting": "[3]", "result": "Stable"}, {"measurement": "Total heterochromatin", "setting": "[3]", "result": "Deheterochro-"}, {"measurement": "Subacute toxicity: side effects", "setting": "[4]", "result": "absence of any side effects"}]}
